pEC50: −log10 of the molar value. Where a name gives a salt, the structure may show the parent alone. Bounds are passed on as bounds.

T1 sequence (P13945 whole entry): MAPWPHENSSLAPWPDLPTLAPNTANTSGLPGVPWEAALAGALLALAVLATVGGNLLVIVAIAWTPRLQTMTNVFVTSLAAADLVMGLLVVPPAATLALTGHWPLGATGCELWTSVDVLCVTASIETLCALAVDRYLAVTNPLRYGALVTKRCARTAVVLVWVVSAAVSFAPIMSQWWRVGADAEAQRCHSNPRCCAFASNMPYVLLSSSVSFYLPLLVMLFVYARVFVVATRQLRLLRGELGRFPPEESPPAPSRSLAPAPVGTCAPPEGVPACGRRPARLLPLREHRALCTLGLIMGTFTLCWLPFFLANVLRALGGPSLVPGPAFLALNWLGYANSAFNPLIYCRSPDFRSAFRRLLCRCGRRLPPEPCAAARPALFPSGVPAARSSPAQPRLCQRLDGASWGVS

One experiment addresses T1, human β3 adrenergic receptor (Homo sapiens, UniProt P13945).
T1 construct: stably transfected with the cloned β-adrenergic receptor (β1, β2 or β3); expressed in transfected cells; host or cells: Chinese hamster ovary (CHO) cells, stably transfected
Description: Functional assay: cAMP production (LANCE TR-FRET) in CHO cells stably transfected with cloned β3 adrenergic receptor. It counts as cell-based. Conditions: Table 2; cAMP production, CHO cells expressing human β3 AR; read-out: Human β3 functional.
With `Nc1nc(CC(=O)Nc2ccc(CC3CC[C@H]([C@H](O)c4cccnc4)N3)cc2)cs1` (stereo partly drawn) [Example 3], the pEC50 is 8.00 to 9.00. Regarding `O=C(Cc1n[nH]c(-c2ccccc2)n1)Nc1ccc(CC2CC[C@H]([C@H](O)c3cccnc3)N2)cc1` (stereo partly drawn) [Example 4], the pEC50 is 8.00 to 9.00. Same read-out and setting: as for `O=C(Cn1ncc2ccccc21)Nc1ccc(CC2CC[C@H]([C@H](O)c3cccnc3)N2)cc1` (stereo partly drawn) [Example 5], the figure is 7.00 to 7.96; as for `O=C(Cn1cc2ccccc2n1)Nc1ccc(CC2CC[C@H]([C@H](O)c3cccnc3)N2)cc1` (stereo partly drawn) [Example 6], 7.00 to 7.96. On the same count and under the same terms, the same measure for `O=C(Cn1nc2ccccc2n1)Nc1ccc(CC2CC[C@H]([C@H](O)c3cccnc3)N2)cc1` (stereo partly drawn) [Example 7]: 7.00 to 7.96; for `O=C(Cn1nc(Cc2ccccc2)c2ccccc2c1=O)Nc1ccc(CC2CC[C@H]([C@H](O)c3cccnc3)N2)cc1` (stereo partly drawn) [Example 8]: 8.00 to 9.00. On the same count and under the same terms, the same measure for `Cc1nn(CC(=O)Nc2ccc(CC3CC[C@H]([C@H](O)c4cccnc4)N3)cc2)c(=O)c2ccccc12` (stereo partly drawn) [Example 9]: 8.00 to 9.00; for `Cc1nc(CC(=O)Nc2ccc(CC3CC[C@H]([C@H](O)c4cccnc4)N3)cc2)c(C)s1` (stereo partly drawn) [Example 10]: 7.00 to 7.96; for `Cc1nc2ccccc2c(=O)n1CC(=O)Nc1ccc(CC2CC[C@H]([C@H](O)c3cccnc3)N2)cc1` (stereo partly drawn) [Example 11]: 8.00 to 9.00. `O=C(Cn1c(=O)ncc2ccccc21)Nc1ccc(CC2CC[C@H]([C@H](O)c3cccnc3)N2)cc1` (stereo partly drawn) [Example 13]: the pEC50 was 8.00 to 9.00. In the case of `O=C(Cc1ccccn1)Nc1ccc(CC2CC[C@H]([C@H](O)c3cccnc3)N2)cc1` (stereo partly drawn) [Example 14], the pEC50 was 7.00 to 7.96. On the same count and under the same terms, the same measure for `Cc1nc(CC(=O)Nc2ccc(CC3CC[C@H]([C@H](O)c4cccnc4)N3)cc2)cs1` (stereo partly drawn) [Example 15]: 7.00 to 7.96; for `O=C(Cc1c(-c2ccccc2)[nH]c2ccccc12)Nc1ccc(CC2CC[C@H]([C@H](O)c3cccnc3)N2)cc1` (stereo partly drawn) [Example 16]: 7.00 to 7.96; for `O=C(Cc1nc2ccccc2[nH]1)Nc1ccc(CC2CC[C@H]([C@H](O)c3cccnc3)N2)cc1` (stereo partly drawn) [Example 17]: 7.00 to 7.96. The same measure, in the same setting: as for `O=C(Cn1c(-c2ccccc2)nc2ccccc21)Nc1ccc(CC2CC[C@H]([C@H](O)c3cccnc3)N2)cc1` (stereo partly drawn) [Example 18], the figure is 7.00 to 7.96; as for `O=C(Cc1c[nH]c2ccccc12)Nc1ccc(CC2CC[C@H]([C@H](O)c3cccnc3)N2)cc1` (stereo partly drawn) [Example 19], 8.00 to 9.00; as for `Nc1ncn(CC(=O)Nc2ccc(CC3CC[C@H]([C@H](O)c4cccnc4)N3)cc2)n1` (stereo partly drawn) [Example 20], 8.00 to 9.00. Still for that read-out and setting: as for `Cc1sc2ncn(CC(=O)Nc3ccc(CC4CC[C@H]([C@H](O)c5cccnc5)N4)cc3)c(=O)c2c1C` (stereo partly drawn) [Example 21], the figure is 8.00 to 9.00; as for `O=C(Cc1ncccn1)Nc1ccc(CC2CC[C@H]([C@H](O)c3cccnc3)N2)cc1` (stereo partly drawn) [Example 22], 7.00 to 7.96.

As to `Cc1nnc(CC(=O)Nc2ccc(CC3CC[C@H]([C@H](O)c4cccnc4)N3)cc2)[nH]1` (stereo partly drawn) [Example 23], the pEC50 was 6.00 to 7.00. `O=C(Cc1nnc(-c2ccc(Cl)cc2)[nH]1)Nc1ccc(CC2CC[C@H]([C@H](O)c3cccnc3)N2)cc1` (stereo partly drawn) [Example 24]: the pEC50 is 7.00 to 7.96. On the same count and under the same terms, as for `O=C(Cc1nnc(-c2ccncc2)[nH]1)Nc1ccc(CC2CC[C@H]([C@H](O)c3cccnc3)N2)cc1` (stereo partly drawn) [Example 25], the figure is 7.00 to 7.96; as for `O=C(Cc1nnc(Cc2ccccc2)[nH]1)Nc1ccc(CC2CC[C@H]([C@H](O)c3cccnc3)N2)cc1` (stereo partly drawn) [Example 26], 7.00 to 7.96.

Consider `O=C(Cc1nnc(-c2cscn2)[nH]1)Nc1ccc(CC2CC[C@H]([C@H](O)c3cccnc3)N2)cc1` (stereo partly drawn) [Example 27], for which the pEC50 is 8.00 to 9.00. On the same count and under the same terms, as for `Cc1cccc(CC(=O)Nc2ccc(CC3CC[C@H]([C@H](O)c4cccnc4)N3)cc2)n1` (stereo partly drawn) [Example 28], the figure is 6.00 to 7.00; as for `O=C(Cc1csc(C(F)(F)F)n1)Nc1ccc(CC2CC[C@H]([C@H](O)c3cccnc3)N2)cc1` (stereo partly drawn) [Example 29], 7.00 to 7.96.

For the compound `O=C(Nc1ccc(CC2CC[C@H]([C@H](O)c3cccnc3)N2)cc1)[C@@H]1CCCN1c1nccs1` (stereo partly drawn) [Example 30], the pEC50 was 8.00 to 9.00. On the same count and under the same terms, as for `COc1cccc(N2CCC[C@H]2C(=O)Nc2ccc(CC3CC[C@H]([C@H](O)c4cccnc4)N3)cc2)c1` (stereo partly drawn) [Example 31], the figure is 8.00 to 9.00.

As to `O=C(Nc1ccc(CC2CC[C@H]([C@H](O)c3cccnc3)N2)cc1)c1ccccc1CCc1ccccc1` (stereo partly drawn) [Example 32], the pEC50 was 7.00 to 7.96. The same measure, in the same setting: the same measure for `O=C(Nc1ccc(CC2CC[C@H]([C@H](O)c3cccnc3)N2)cc1)c1ccccc1-c1ncc[nH]1` (stereo partly drawn) [Example 33]: 7.00 to 7.96; for `O=C(Nc1ccc(CC2CC[C@H]([C@H](O)c3cccnc3)N2)cc1)c1ccccc1-c1nc2ccccc2s1` (stereo partly drawn) [Example 34]: 7.00 to 7.96.

In the case of `O=C(Nc1ccc(CC2CC[C@H]([C@H](O)c3cccnc3)N2)cc1)c1ccccc1-n1nccn1` (stereo partly drawn) [Example 35], the pEC50 was 7.00 to 7.96. On the same count and under the same terms, the same measure for `O=C(Nc1ccc(CC2CC[C@H]([C@H](O)c3cccnc3)N2)cc1)c1ccccc1C1CCCCC1` (stereo partly drawn) [Example 36]: 6.00 to 7.00; for `O=C(Nc1ccc(CC2CC[C@H]([C@H](O)c3cccnc3)N2)cc1)c1ccccc1N1CCCC1` (stereo partly drawn) [Example 37]: 6.00 to 7.00. `O=C(Cn1cncn1)Nc1ccc(CC2CC[C@H]([C@H](O)c3cccnc3)N2)cc1` (stereo partly drawn) [Example 38]: the pEC50 was 7.00 to 7.96. On the same count and under the same terms, as for `O=C(Cn1nccn1)Nc1ccc(CC2CC[C@H]([C@H](O)c3cccnc3)N2)cc1` (stereo partly drawn) [Example 39], the figure is 7.00 to 7.96; as for `O=C(Cn1ccccc1=O)Nc1ccc(CC2CC[C@H]([C@H](O)c3cccnc3)N2)cc1` (stereo partly drawn) [Example 40], 8.00 to 9.00. The same measure, in the same setting: as for `O=C(Cc1cnccn1)Nc1ccc(CC2CC[C@H]([C@H](O)c3cccnc3)N2)cc1` (stereo partly drawn) [Example 41], the figure is 7.00 to 7.96; as for `O=C(CN1CCCCC1=O)Nc1ccc(CC2CC[C@H]([C@H](O)c3cccnc3)N2)cc1` (stereo partly drawn) [Example 42], 7.00 to 7.96.

As to `O=C(CN1C(=O)CCC1=O)Nc1ccc(CC2CC[C@H]([C@H](O)c3cccnc3)N2)cc1` (stereo partly drawn) [Example 43], the pEC50 is 7.00 to 7.96.

Consider `O=C(CN1CCOC1=O)Nc1ccc(CC2CC[C@H]([C@H](O)c3cccnc3)N2)cc1` (stereo partly drawn) [Example 44], for which the pEC50 is 7.00 to 7.96. On the same count and under the same terms, the same measure for `O=C(CN1CCSC1=O)Nc1ccc(CC2CC[C@H]([C@H](O)c3cccnc3)N2)cc1` (stereo partly drawn) [Example 45]: 8.00 to 9.00; for `Cc1cn(CC(=O)Nc2ccc(CC3CC[C@H]([C@H](O)c4cccnc4)N3)cc2)nn1` (stereo partly drawn) [Example 46]: 7.00 to 7.96.

`O=C(Cc1cncnc1O)Nc1ccc(CC2CC[C@H]([C@H](O)c3cccnc3)N2)cc1` (stereo partly drawn) [Example 47]: the pEC50 is 7.00 to 7.96. On the same count and under the same terms, the same measure for `COc1ncncc1CC(=O)Nc1ccc(CC2CC[C@H]([C@H](O)c3cccnc3)N2)cc1` (stereo partly drawn) [Example 48]: 7.00 to 7.96; for `Nc1ncncc1CC(=O)Nc1ccc(CC2CC[C@H]([C@H](O)c3cccnc3)N2)cc1` (stereo partly drawn) [Example 49]: 7.00 to 7.96.

Still in this experiment, the particulars now being: Table 3; cAMP production, CHO cells expressing human β3 AR; read-out: Human β3 functional.
Turning to `Cc1nnc2c(C(C)C(=O)Nc3ccc(CC4CC[C@H]([C@H](O)c5cccnc5)N4)cc3)cccn12` (single isomer, unassigned) [Example 217], the pEC50 was 7.00 to 7.96. For `CC(C(=O)Nc1ccc(CC2CC[C@H]([C@H](O)c3cccnc3)N2)cc1)n1cnc2ccccc2c1=O` (single isomer, unassigned) [Example 218], the pEC50 was 8.00 to 9.00. Same read-out and setting: the same measure for `CC(C(=O)Nc1ccc(CC2CC[C@H]([C@H](O)c3cccnc3)N2)cc1)n1cc(C(N)=O)cn1` (single isomer, unassigned) [Example 219]: 8.00 to 9.00; for `COCCC(C(=O)Nc1ccc(CC2CC[C@H]([C@H](O)c3cccnc3)N2)cc1)n1cccn1` (single isomer, unassigned) [Example 220]: 8.00 to 9.00; for `COCCC(C(=O)Nc1ccc(CC2CC[C@H]([C@H](O)c3cccnc3)N2)cc1)n1cccn1` (single isomer, unassigned) [Example 221]: 8.00 to 9.00.

Still in this experiment, the particulars now being: Table 5; human β3 functional activity given as ranges; read-out: Human β3 functional.
As to `O=C(Nc1ccc(CC2CC[C@H]([C@H](O)c3cccnc3)N2)cc1Br)C1CCc2sc(I)nc21` (single isomer, unassigned) [Example 243], the pEC50 is 6.00 to 7.00.

For `O=C(Nc1ccc(CC2CC[C@H]([C@H](O)c3cccnc3)N2)cc1Br)C1CCc2sc(I)nc21` (single isomer, unassigned) [Example 244], the pEC50 was 7.00 to 7.96.

Staying with this experiment, now noted: cAMP production, CHO cells expressing human β3 AR; read-out: human Beta-3 agonist functional activity.
Turning to `O=C(Nc1ccc(CC2CCC(C(O)c3cccnc3)N2)cc1Br)C1CCc2sc(Br)nc21` (single isomer, unassigned) [Example 240, (4S or 4R)-2-bromo-N-[2-bromo-4-({(2S,5R)-5-[(R)-hydroxy(pyridin-3-yl)methyl]pyrrolidin-2-yl}methyl)phenyl]-5,6-dihydro-4H-cyclopenta[d][1,3]thiazole-4-carboxamide], the pEC50 is more than 6.00.

Regarding `O=C(Nc1ccc(CC2CCC(C(O)c3cccnc3)N2)cc1Br)C1CCc2sc(Br)nc21` (single isomer, unassigned) [Example 241, (4S or 4R)-2-bromo-N-[2-bromo-4-({(2S,5R)-5-[(R)-hydroxy(pyridin-3-yl)methyl]pyrrolidin-2-yl}methyl)phenyl]-5,6-dihydro-4H-cyclopenta[d][1,3]thiazole-4-carboxamide], the pEC50 is more than 7.00. Take `Nc1nc(CC(=O)Nc2ccc(C[C@@H]3CC[C@H]([C@H](O)c4cccnc4)N3)cc2)cs1` [Example 1, 2-2-Amino-1,3-thiazol-4-yl)-N-[4-({(2S,5R)-5-[(R)-hydroxy(pyridin-3-yl)methyl]pyrrolidin-2-yl}methyl)phenyl]acetamide, trfluoroacetic acid salt]: the pEC50 was more than 8.00. Consider `O=C(CN1CCCC1=O)Nc1ccc(C[C@@H]2CC[C@H]([C@H](O)c3cccnc3)N2)cc1` [Example 2, N-[4-({(2S,5R)-5-[(R)-Hydroxy(pyridin-3-yl)methyl]pyrrolidin-2-yl}methyl)phenyl]-2-(2-oxopyrrolidin-1-yl)acetamide, trfluoroacetic acid salt], for which the pEC50 was more than 7.00.
